From patent US20090214600A1, “METHODS AND COMPOSITIONS FOR GASTRIC RESISTANT ORAL FORMULATIONS FOR INTESTINAL DELIVERY” (priority 2008, published 2009)
Several values for one entry are separate records, joined by “and”; a condition that tells them apart may be missing. Identical values can stand only once. Like-named read-outs stand apart in the source and are kept apart here.

Legend:
[1] = single dose IV, 1.0 g, cited from earlier work
[2] = Rabbit plasma Ceftriaxone concentration after IV administration (control); type: in vivo
[3] = cited from earlier work
[4] = single dose IM, 1.0 g, cited from earlier work
[5] = in vivo; cited from earlier work
[6] = Rabbit plasma Ceftriaxone concentration after oral administration of oral formulations (HPLC); type: in vivo; details: oral formulation, 40-80 mg Ceftriaxone, one line per animal (001-005)
Procedure: Oral Ceftriaxone formulations were administered to rabbit test subjects through a formulation delivery tube to permit oral administration, illustrative of the same absorption processes as the human stomach and intestines. Rabbits were dosed at a Ceftriaxone load of 40-80 mg depending upon body weight. Rabbits were dosed with all five oral Ceftriaxone formulations and absorption data collected by HPLC analysis of plasma Ceftriaxone concentrations from the heparinized rabbit plasma specimen. Blood draws were collected at pre-determined intervals of time, spun down to separate serum, and serum was removed and frozen prior to delivery to Clinical Pathology Laboratories in Oklahoma City, Okla.

## CO/N=C(\C(=O)N[C@@H]1C(=O)N2C(C(=O)O)=C(CSc3nc(=O)c(=O)[nH]n3C)CS[C@H]12)c1csc(N)n1 [Ceftriaxone, Ceftriaxone sodium]
[1]; 0.5 hr
  Plasma Concentrations: 151 µg/mL
[1]; 1 hr
  Plasma Concentrations: 111 µg/mL
[1]; 2 hr
  Plasma Concentrations: 88 µg/mL
[1]; 4 hr
  Plasma Concentrations: 67 µg/mL
[1]; 6 hr
  Plasma Concentrations: 53 µg/mL
[1]; 8 hr
  Plasma Concentrations: 43 µg/mL
[1]; 12 hr
  Plasma Concentrations: 28 µg/mL
[1]; 16 hr
  Plasma Concentrations: 18 µg/mL
[1]; 24 hr
  Plasma Concentrations: 9 µg/mL
[2]; animal 006, 0.00 Hours
  Plasma Concentration of Ceftriaxone Over Time After IV Administration: BLQ (BLQ = Below Limit of Quantitation (<1.00 mcg/mL))
[2]; animal 006, 0.5 Hours, read-out: Plasma Concentration of Ceftriaxone Over Time After IV Administration
  concentration at 0.5 h: 198 µg/mL
[2]; animal 006, 1.0 Hours, read-out: Plasma Concentration of Ceftriaxone Over Time After IV Administration
  concentration at 1 h: 136 µg/mL
[2]; animal 006, 2.0 Hours, read-out: Plasma Concentration of Ceftriaxone Over Time After IV Administration
  concentration at 2 h: 90.8 µg/mL
[2]; animal 006, 4.0 Hours, read-out: Plasma Concentration of Ceftriaxone Over Time After IV Administration
  concentration at 4 h: 36.4 µg/mL
[2]; animal 006, 6.0 Hours, read-out: Plasma Concentration of Ceftriaxone Over Time After IV Administration
  concentration at 6 h: 27.3 µg/mL
[3]; ethanol
  solubility in ethanol: slightly soluble
[3]; methanol
  solubility in methanol: sparingly
[3]; water
  solubility in water: readily soluble
[4]; 0.5 hr
  Plasma Concentrations: 40 µg/mL
[4]; 1 hr
  Plasma Concentrations: 68 µg/mL
[4]; 2 hr
  Plasma Concentrations: 76 µg/mL
[4]; 4 hr
  Plasma Concentrations: 68 µg/mL
[4]; 6 hr
  Plasma Concentrations: 56 µg/mL
[4]; 8 hr
  Plasma Concentrations: 44 µg/mL
[4]; 12 hr
  Plasma Concentrations: 29 µg/mL
[5]
  dose excreted as unchanged drug in the urine: 33-67%
[6]; 0.00 Hours
  Study Sample Concentration: BLQ (BLQ = Below Limit of Quantitation (<1.00 mcg/mL))
[6]; 0.5 Hours
  Study Sample Concentration: 40.194 µg/mL and 31.84 µg/mL and 110.88 µg/mL and 143.15 µg/mL and 35.69 µg/mL
[6]; 1.0 Hours
  Study Sample Concentration: 27.41 µg/mL and 21.71 µg/mL and 75.60 µg/mL and 97.60 µg/mL and 24.33 µg/mL
[6]; 2.0 Hours
  Study Sample Concentration: 18.27 µg/mL and 14.47 µg/mL and 50.40 µg/mL and 65.07 µg/mL and 16.22 µg/mL
[6]; 4.0 Hours
  Study Sample Concentration: 7.31 µg/mL and 5.79 µg/mL and 20.16 µg/mL and 26.03 µg/mL and 6.44 µg/mL
[6]; 6.0 Hours
  Study Sample Concentration: 5.48 µg/mL and 4.34 µg/mL and 15.12 µg/mL and 19.52 µg/mL and 4.87 µg/mL
